pIC50: −log10 of the molar value.
Columns and labels:
[1] = molecular target: T1, androgen receptor (Mesocricetus auratus, UniProt A0A1U7QL32); assay: Inhibition of [3H]R1881 binding with androgen receptor (Pharmacological Test Example 1; also Test Example 2); set-up: species or system male Syrian hamster (sebaceous gland in flank organ); conditions: for pIC50: chemically synthesized xanthones, calculated from inhibition rate, 1 nM [3H]R1881, 0° C., 16 hours, read-out: Concentration for 50% Inhibition
T1 construct: a sebaceous gland in flank organ was excised and homogenized; from tissue; host or cells: male Syrian hamster flank organ sebaceous gland, 16 hours after castration; supernatant of homogenate centrifuged at 30,000 rpm for 1 hour
T1 sequence (A0A1U7QL32 1-900): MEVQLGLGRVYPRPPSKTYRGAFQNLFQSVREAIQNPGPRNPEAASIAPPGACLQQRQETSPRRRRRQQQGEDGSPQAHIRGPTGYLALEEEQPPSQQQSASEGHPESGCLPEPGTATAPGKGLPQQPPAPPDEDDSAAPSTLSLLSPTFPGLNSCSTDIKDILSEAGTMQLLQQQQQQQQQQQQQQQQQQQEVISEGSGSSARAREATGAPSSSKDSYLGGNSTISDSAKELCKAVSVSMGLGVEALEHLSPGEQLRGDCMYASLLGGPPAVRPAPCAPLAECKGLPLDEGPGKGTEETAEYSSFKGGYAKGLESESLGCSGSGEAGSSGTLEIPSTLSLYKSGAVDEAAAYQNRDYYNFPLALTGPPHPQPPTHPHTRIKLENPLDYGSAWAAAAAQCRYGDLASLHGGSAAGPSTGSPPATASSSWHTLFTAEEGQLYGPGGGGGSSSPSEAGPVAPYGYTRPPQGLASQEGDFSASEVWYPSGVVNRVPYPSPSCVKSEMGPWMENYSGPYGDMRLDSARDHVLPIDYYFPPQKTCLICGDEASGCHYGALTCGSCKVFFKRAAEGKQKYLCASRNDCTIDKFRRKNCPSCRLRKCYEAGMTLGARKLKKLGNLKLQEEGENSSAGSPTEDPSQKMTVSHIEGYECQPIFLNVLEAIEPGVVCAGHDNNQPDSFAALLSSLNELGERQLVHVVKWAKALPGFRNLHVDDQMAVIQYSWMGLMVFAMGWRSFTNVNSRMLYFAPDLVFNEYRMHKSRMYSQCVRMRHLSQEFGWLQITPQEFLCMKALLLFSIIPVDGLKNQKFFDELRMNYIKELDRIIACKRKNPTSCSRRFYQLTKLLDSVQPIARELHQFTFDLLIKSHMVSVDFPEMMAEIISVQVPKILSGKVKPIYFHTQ
Method: (a) Preparation of androgen receptor
From a male Syrian hamster 16 hours after castration, a sebaceous gland in flank organ was excised and homogenized in 5-10 times (volume) of 50 mM-Tris-HCl buffer (pH 7.4) containing 1.5 mM-EDTA, 1 mM-DTT, 10 mM-Na2 MoO4, and 10% (w/v) glycerol. The homogenate was centrifuged at 3,000 rpm and 0°-4° C. for 10 minutes to obtain the supernatant, which was further centrifuged at 30,000 rpm and 0°-4° C. for 1 hour to obtain the supernatant to be employed as androgen receptor.
(b) Determination of inhibitory activity
Then the mixture was added with a suspension (500 μl) of 0.5% charcoal and 0.05% dextran T-70. After standing at 0° C. for 10 minutes, the mixture was centrifuged at 3,000 rpm for 10 minutes. The supernatent (300 μl) was mixed with a liquid scintillator to measure the radioactivity due to binding of [^3 H]R1881 with the androgen receptor in scintillation counter. The inhibition rate of each extract was calculated according to the following equation.
Inhibition (%)=[(c-s)/c]×100 […]
c: specific binding amount of [^3 H]R1881 with androgen receptor without addition of test sample; and s: specific binding amount of [^3 H]R1881 with androgen receptor with addition of the test sample.

[2] = system: 5α-reductase; conditions: reported in Jap. Pat. No. 60-126218 (A); cited from earlier work

SMILES | pIC50 [1] | also measured
O=c1c2c(O)cc(O)cc2oc2c(O)ccc(O)c12 [Test sample A, 1,3,5,8-Tetrahydroxyxanthone] | – | inhibition of binding of 5α-DHT with androgen receptor ([1]; statement in words): shows the inhibition of binding of 5α-DHT with androgen receptor
O=c1c2c(O)cc(O)cc2oc2c(O)ccc(O)c12 [A] | 5.10 | –
O=c1c2ccc(O)cc2oc2cc(O)cc(O)c12 [E] | 5.39 | –
CC1(C)CC[C@]2(C(=O)O)CC[C@]3(C)C(=CC[C@@H]4[C@@]5(C)CC[C@H](O)C(C)(C)[C@@H]5CC[C@]43C)[C@@H]2C1 [oleanolic acid] | – | inhibition of the activity of 5α-reductase [2]: showing the inhibition
O=c1c2ccc(O)cc2oc2c(O)ccc(O)c12 [C] | 5.74 | –

The remaining molecules from weak to strong by pIC50 [1], led by results:

pIC50 [1] | SMILES | also measured
4.28 | O=c1c2ccccc2oc2cc(O)cc(O)c12 [G] | –
4.47 | O=c1c2cccc(O)c2oc2cc(O)cc(O)c12 [D] | –
4.70 | O=c1c2c(O)cccc2oc2cc(O)cc(O)c12 [F] | –
5.12 | O=c1c2ccc(O)cc2oc2cccc(O)c12 [H] | –
5.29 | O=c1c2c(O)cc(O)cc2oc2cc(O)cc(O)c12 [B] | –
